Measured values as given in US7704979B2, “Materials and methods for the treatment or prevention of obesity” (The University of Tennessee Research Foundation, priority 2000, dated 2010).

Tests used:
human adipocytes [1] = assay: Human adipocyte [Ca2+]i, fura-2 imaging (Example 4); assay type: cell-based
human adipocytes [2] = assay: FAS activity in human adipocytes (Example 4); assay type: cell-based
Procedure: A human adipocyte cell line and primary-cultured human adipocytes were both used as cell models in this study. The human adipocyte cell line was differentiated from human preadipocytes obtained from Zen-Bio Inc. (Research Triangle Park, N.C.). Human preadipocytes were inoculated in Dulbecco's Modified Eagle' Medium (DMEM)/Ham' F-10 medium (F-10) (1:1, v/v) containing 10% fetal bovine serum (FBS), 15mM Hepes and antibiotics at a density of 30,000 cells/cm^2. Confluent monolayers of preadipocytes were induced to differentiate with a standard differentiation medium consisting of DMEM/F-10 (1:1, v/v) medium supplemented with 15 mM Hepes, 3% FBS, 33 μM biotin, 17 μM pantothenate, 100 nM insulin, 0.25 mM methylisobutylxanthine (MIX), 1 μM dexamethasome, 1 μM BRL49653 and antibiotics. Preadipocytes were maintained in this differentiation medium for 3 days and subsequently cultured in adipocyte medium in which BRL49653 and MIX were withdrawn. Cultures were re-fed every 2-3 days (Shi, H., et al., “Role of intracellular calcium in human adipocyte differentiation,” Phyisol. Genomics. (2000) pp. 75-82, vol. 3.). Primary-cultured human adipocytes were derived from human subcutaneous adipose tissue obtained from patients undergoing abdominal plastic surgery with no known history of metabolic disorders. This protocol was approved by the Institutional Review Board for Human Subjects and the Committee for Research Participation of the University of Tennessee. Adipocytes were isolated according to the teachings of (Shi, H., et al., “Role of the sulfonylurea receptor in regulating human adipocyte metabolism,” FASEB. J. (1999) pp. 1833-38, vol. 13.). […] FAS and GPDH activity was determined spectrophotometrically in crude cytosolic extracts of human adipocytes as previously described (Shi, H., et al., “Role of the sulfonylurea receptor in regulating human adipocyte metabolism,” FASEB. J. (1999) pp. 1833-38, vol. 13). […]

human adipocytes [3] = assay: FAS mRNA expression in human adipocytes, Northern blot (Example 4); assay type: cell-based
Procedure: A human adipocyte cell line and primary-cultured human adipocytes were both used as cell models in this study. The human adipocyte cell line was differentiated from human preadipocytes obtained from Zen-Bio Inc. (Research Triangle Park, N.C.). Human preadipocytes were inoculated in Dulbecco's Modified Eagle' Medium (DMEM)/Ham' F-10 medium (F-10) (1:1, v/v) containing 10% fetal bovine serum (FBS), 15mM Hepes and antibiotics at a density of 30,000 cells/cm^2. Confluent monolayers of preadipocytes were induced to differentiate with a standard differentiation medium consisting of DMEM/F-10 (1:1, v/v) medium supplemented with 15 mM Hepes, 3% FBS, 33 μM biotin, 17 μM pantothenate, 100 nM insulin, 0.25 mM methylisobutylxanthine (MIX), 1 μM dexamethasome, 1 μM BRL49653 and antibiotics. Preadipocytes were maintained in this differentiation medium for 3 days and subsequently cultured in adipocyte medium in which BRL49653 and MIX were withdrawn. Cultures were re-fed every 2-3 days (Shi, H., et al., “Role of intracellular calcium in human adipocyte differentiation,” Phyisol. Genomics. (2000) pp. 75-82, vol. 3.). Primary-cultured human adipocytes were derived from human subcutaneous adipose tissue obtained from patients undergoing abdominal plastic surgery with no known history of metabolic disorders. This protocol was approved by the Institutional Review Board for Human Subjects and the Committee for Research Participation of the University of Tennessee. Adipocytes were isolated according to the teachings of (Shi, H., et al., “Role of the sulfonylurea receptor in regulating human adipocyte metabolism,” FASEB. J. (1999) pp. 1833-38, vol. 13.). Briefly, adipose tissue was first washed several times with Hank's Balanced Salt Solution, minced into small pieces and digested with 1 mg/ml type1 collagenase in a shaking water bath at 37° C. for 30 min. […] ZERO-Dscan software (Scanalytics, Inc, Fairfax, Va.) was used to quantitatively analyze these images.

human adipocytes [4] = assay: GPDH activity in human adipocytes (Example 4); assay type: cell-based
Procedure: A human adipocyte cell line and primary-cultured human adipocytes were both used as cell models in this study. The human adipocyte cell line was differentiated from human preadipocytes obtained from Zen-Bio Inc. (Research Triangle Park, N.C.). Human preadipocytes were inoculated in Dulbecco's Modified Eagle' Medium (DMEM)/Ham' F-10 medium (F-10) (1:1, v/v) containing 10% fetal bovine serum (FBS), 15mM Hepes and antibiotics at a density of 30,000 cells/cm^2. Confluent monolayers of preadipocytes were induced to differentiate with a standard differentiation medium consisting of DMEM/F-10 (1:1, v/v) medium supplemented with 15 mM Hepes, 3% FBS, 33 μM biotin, 17 μM pantothenate, 100 nM insulin, 0.25 mM methylisobutylxanthine (MIX), 1 μM dexamethasome, 1 μM BRL49653 and antibiotics. Preadipocytes were maintained in this differentiation medium for 3 days and subsequently cultured in adipocyte medium in which BRL49653 and MIX were withdrawn. Cultures were re-fed every 2-3 days (Shi, H., et al., “Role of intracellular calcium in human adipocyte differentiation,” Phyisol. Genomics. (2000) pp. 75-82, vol. 3.). Primary-cultured human adipocytes were derived from human subcutaneous adipose tissue obtained from patients undergoing abdominal plastic surgery with no known history of metabolic disorders. This protocol was approved by the Institutional Review Board for Human Subjects and the Committee for Research Participation of the University of Tennessee. Adipocytes were isolated according to the teachings of (Shi, H., et al., “Role of the sulfonylurea receptor in regulating human adipocyte metabolism,” FASEB. J. (1999) pp. 1833-38, vol. 13.). Briefly, adipose tissue was first washed several times with Hank's Balanced Salt Solution, minced into small pieces and digested with 1 mg/ml type1 collagenase in a shaking water bath at 37° C. for 30 min. Adipocytes were then filtered through a sterile 500 μm nylon mesh and cultured in Dulbecco's Modified Eagle's Medium (DMEM) supplemented with 1% fetal bovine serum (FBS), 100 UI/ml penicillin, 100 μg/ml streptomycin and 50 μg/ml gentamicin. Cells were cultured in suspension and maintained in a thin layer at the top of culture media, which were changed every day. Cells were maintained viable and metabolically responsive under this culture condition for 7 days. FAS and GPDH activity was determined spectrophotometrically in crude cytosolic extracts of human adipocytes as previously described (Shi, H., et al., “Role of the sulfonylurea receptor in regulating human adipocyte metabolism,” FASEB. J. (1999) pp. 1833-38, vol. 13). Human adipocytes were homogenized in 250 mmol/L sucrose solution containing 1 mmol/L ethylenediamine-tetraacticacid (EDTA), 1 mmol/L dithiothreitol (DTT), and 100 μmol/L phenylmethylsulfonyl fluoride (PMSF) (pH 7.4). […]

human adipocytes [5] = assay: Basal lipolysis (glycerol release) in human adipocytes (Example 4); assay type: cell-based
Procedure: (§1) A human adipocyte cell line and primary-cultured human adipocytes were both used as cell models in this study. The human adipocyte cell line was differentiated from human preadipocytes obtained from Zen-Bio Inc. (Research Triangle Park, N.C.). Human preadipocytes were inoculated in Dulbecco's Modified Eagle' Medium (DMEM)/Ham' F-10 medium (F-10) (1:1, v/v) containing 10% fetal bovine serum (FBS), 15mM Hepes and antibiotics at a density of 30,000 cells/cm^2. Confluent monolayers of preadipocytes were induced to differentiate with a standard differentiation medium consisting of DMEM/F-10 (1:1, v/v) medium supplemented with 15 mM Hepes, 3% FBS, 33 μM biotin, 17 μM pantothenate, 100 nM insulin, 0.25 mM methylisobutylxanthine (MIX), 1 μM dexamethasome, 1 μM BRL49653 and antibiotics. Preadipocytes were maintained in this differentiation medium for 3 days and subsequently cultured in adipocyte medium in which BRL49653 and MIX were withdrawn. Cultures were re-fed every 2-3 days (Shi, H., et al., “Role of intracellular calcium in human adipocyte differentiation,” Phyisol. Genomics. (2000) pp. 75-82, vol. 3.). Primary-cultured human adipocytes were derived from human subcutaneous adipose tissue obtained from patients undergoing abdominal plastic surgery with no known history of metabolic disorders. […]

human adipocytes [6] = assay: Isoproterenol-stimulated lipolysis in human adipocytes (Example 4); assay type: cell-based
Procedure: as §1

nVDR = conditions: cited from earlier work
human adipocytes [7] = assay: Intracellular Ca2+ in primary cultures of human adipocytes (fura-2 fluorometry); assay type: cell-based; conditions: read-out: EC50 for increase in intracellular Ca2+
Procedure: Human subcutaneous adipose tissue was obtained from patients with no known history of metabolic disorders undergoing abdominal plastic surgery. Adipocytes were isolated by washing, mincing, collagenase digestion, and filtration as described previously and cultured in Dulbecco's modified Eagle's medium supplemented with 1% fetal bovine serum, penicillin (100 IU/ml), streptomycin (100 μg/ml), and gentamicin (50 μg/ml). Cells were cultured in suspension and maintained in a thin layer at the top of the culture media, which was changed every day. Cells were studied about 72 hours after isolation and were serum-starved prior to study.
Intracellular Ca^2+ was determined fluorometrically as described previously. Cells were washed with HEPES-buffered salt solution loaded with fura-2-acetoxymethyl ester (10 μM) for 45 minutes at 37° C. in the dark with continuous shaking. Cells were then rinsed three times, resuspended, and intracellular Ca^2+ was measured using dual excitation (340 and 380 nm)/single emission (510 nm) fluorometry. After the establishment of a stable baseline, the response to 1,25-(OH)2-D or parathyroid hormone (10 pM-100 nM) or their respective vehicles was determined. Digitonin (25 μM) and Tris/EGTA (100 mM, pH 8.7) were used to for calibration to calculate the final intracellular Ca^2+.

human adipocytes [8] = assay: Forskolin-stimulated lipolysis (glycerol release) in human adipocytes; assay type: cell-based; conditions: data not shown

## C=C1/C(=C\C=C2/CCC[C@]3(C)[C@@H]([C@H](C)CCCC(C)(C)O)CC[C@@H]23)C[C@@H](O)C[C@@H]1O [1α,25-(OH)2-D3, 1α,25-Dihydroxyvitamin D3]
Human adipocytes [1]
  [Ca2+]i response in human adipocytes: significant increase of [Ca^2+]i in human adipocyte in a dose-dependent manner
Human adipocytes [2]; 5 nM, over 48 hrs
  increase in adipocyte FAS activity: 40%
Human adipocytes [3]
  increase in FAS mRNA expression: 2 fold
Human adipocytes [4]; 5 nM
  increase in human adipocyte GPDH activity: 50%

## C[C@H](CCCC(C)(C)O)[C@H]1CC[C@H]2C3=CC=C4C[C@@H](O)C[C@H](O)[C@@]4(C)[C@@H]3CC[C@]12C [1α,25-(OH)2-lumisterol3, 1α,25-dihydroxylumisterol3]
Human adipocytes [1]
  [Ca2+]i response in human adipocytes: marked dose-responsive increases
Human adipocytes [2]; human adipocytes
  increase in FAS activity: 2.5 fold
Human adipocytes [3]
  increase in FAS mRNA expression: 2.5 fold
Human adipocytes [4]; human adipocytes
  stimulation of GPDH activity: 2.8 fold
Human adipocytes [5]
  inhibition of adipocyte basal lipolysis: 50%
Human adipocytes [6]
  inhibition of isoproterenol-stimulated lipolysis: 53%
nVDR
  binding affinity to nVDR: low binding affinity

## C=C1/C(=C\C=C2/CCC[C@]3(C)[C@@H]([C@H](C)CCCC(C)(C)O)CC[C@@H]23)C[C@@H](O)C[C@H]1O [1β,25-(OH)2-D3, 1β,25-dihydroxyvitamin D3]
Human adipocytes [1]; pre-treatment of human adipocytes
  effect of pre-treatment on 1α,25-(OH)2-lumisterol3-induced increases in [Ca2+]i: completely prevented
Human adipocytes [2]; pretreatment of human adipocytes
  effect of pretreatment on stimulation of FAS activity: completely prevented
Human adipocytes [3]
  effect on stimulation of FAS mRNA expression: completely blocked
Human adipocytes [4]; human adipocytes
  effect on 1α,25-(OH)2-D3 stimulated GPDH activity: little effect
  effect on 1α,25-(OH)2-lumisterol3 stimulated GPDH activity: markedly inhibited
nVDR
  effects on nVDR: no effects

## CC(C)NCC(O)c1ccc(O)c(O)c1 (centres unmarked) [isoproterenol]
Human adipocytes [6]
  increase in lipolysis: 3.2 fold

## parathyroid hormone [PTH]
Human adipocytes [7]
  EC50: ~10 nM
Human adipocytes [8]
  effect on lipolysis: little effect
